Results from US9562083B2, “Peptides and methods for inducing cell death” (Los Angeles Biomedical Research Institute at Harbor-UCLA …, priority 2010, dated 2017).

Experiments:
[1] = known in the art; cited from earlier work
[2] = system: Acinetobacter baumannii isolates; assay: Radial diffusion assay, Example III; type: cell-based; settings: pH 5.5 vs. pH 7.5
Procedure: (§1) The top eleven prioritized target sequences identified in Example I (see Table 21) were synthesized by solid-phase chain extension synthesis using conventional techniques. Each synthetic peptide was purified by RP-HPLC, and authenticated for purity and correct sequence by mass spectroscopy. Stock concentrations of the synthetic peptides were prepared at 1 mg/mL in 0.01% acetic acid and adjusted to pH 7.2. Synthetic peptides were assessed for antimicrobial efficacy, spectra, and conditional optima (pH 5.5 or 7.5) using the following modified radial diffusion assay, as detailed in Yount and Yeaman, PNAS […] (2004).
(§2) Molecular grade agarose (1.0%) in 10 mM NaH2PO4H2O was prepared, pH adjusted to 7.5 or 5.5, and autoclaved for 15 minutes at 121° C., then held in a waterbath set at 48° C. until used. Mueller Hinton II overlay agarose was prepared by adding molecular grade agarose to Mueller Hinton II Broth at a final concentration of 1.0%, pH adjusted to 7.5 or 5.5, autoclaved for 10 minutes at 121° C., and then held at 48° C. until used.
(§3) Trypticase Soy Broth (TSB) (10 mL) we inoculated with an overnight growth of the test organism and incubated three to six hours until the organism reached log phase. The cells were collected by centrifugation, washed in PBS, then 0.01% acetic acid adjusted to pH 7.2. The pellet was resuspended in TSB and standardized to a 0.5 McFarland turbidity standard. A 10 μl aliquot of the inoculum is added to 10 mL of the pH-adjusted 1.0% molecular grade agarose cooled to 48° C. resulting in a final inoculum concentration of 5×10^5 CFU/mL. The suspension is poured into a 15×100 mm Petri dish and allowed to solidify.
(§4) After solidification had occurred, five 4 mm diameter wells were bored into the agarose. The central well was used as the acetic acid control while 10 μl of peptide stock solution was added to each of the other wells resulting in a final concentration of 10 μg peptide/well. The plates were incubated upright for three hours at 37° C., then overlaid with 10 mL of Mueller Hinton II agarose. After the overlay solidified, the plates were inverted and incubated overnight at 37° C.
(§5) The synthetic peptides identified in Table 22 were assayed for antimicrobial activity against known pathogenic microorganisms. These pathogenic microorganisms included five species of bacteria (Staphylococcus aureus, Escherichia coli, Salmonella typhimurium, Pseudomonas aeruginosa and Bacillus subtilis) and one species of fungi (Candida albicans) (see Table 23). Zones of growth inhibition were measured and were grouped as complete and/or partial growth zones for the assayed microorganism. Zones were considered complete clearance when there was no visible growth (i.e. completely clear or free of growth). Zones were considered partial clearance when growth was impeded or partially cleared (i.e. reduction in microbial density as compared to adjacent confluent growth). The larger the zone size, the greater the antimicrobial activity of the test peptide. The lack of a zone is an indication of no antimicrobial activity of the test peptide against the target organism under the conditions tested.
(§6) Further to the methods disclosed in Example II, utilizing the same antimicrobial assay above, the antimicrobial activity of peptides Hol-III-4 (SEQ ID NO: 268) and Ncl-VIII-6 (SEQ ID NO: 152 was determined by identifying zones of growth inhibition.
(§7) Hol-III-4 and Ncl-VIII-6 peptides were assayed for antimicrobial activity against a panel of drug-resistant Gram-negative bacterial pathogens, specifically Pseudomonas aeruginosa, and various Acinetobacter spp. strains. […] The RP-1 peptide is well known in the art to have antimicrobial activity, as illustrated in Yeaman et al., Antimicrobial Agents and Chemotherapy, 46(12):3883-3891 (2002). The 6W-RP-1 peptide is a 6-Trp variant of RP-1, which also has antimicrobial activity, as illustrated in Kilelee et al, Antimicrobial Agents and Chemotherapy 54(10):4476-4479 (2010).

[3] = system: Pseudomonas aeruginosa strains (drug-resistant); assay: Radial diffusion assay, Example III; type: cell-based; settings: pH 5.5 and pH 7.5; all strains tested
Procedure: as §1, §2, §3, §4, §5, §6, §7

[4] = system: Acinetobacter spp. strains (drug-resistant); assay: Radial diffusion assay, Example III; type: cell-based; settings: pH 5.5 and pH 7.5; all strains tested
Procedure: as §1, §2, §3, §4, §5, §6, §7

[5] = system: Escherichia coli ML-35; assay: Modified radial diffusion assay (zones of growth inhibition); type: cell-based; settings: pH 5.5 versus pH 7.5
Procedure: (§8) An agar radial diffusion assay has been used as described herein to determine antimicrobial activities of proteins against microbial pathogens in vitro. One million CFU will be mixed into 10 ml (i.e., 1×10^5 CFU/ml) of melted 1% agarose (in 10 mM NaHPO4 and cooled to 42° C.) containing minimal nutrient and adjusted to either pH 5.5 or pH 7.2. The agar is solidified in culture dishes, and sample wells are formed. Peptides at various concentrations are dissolved in 10 μl of 0.01% acetic acid buffer (pH 5.5 or 7.2), loaded into individual wells, and incubated at 37° C. for three hours. The plate is then overlayed with 1% agarose containing nutrients and incubated (37° C., for at least 24 hours). Peptides purified by RP-HPLC lacking antimicrobial activity are tested in parallel as controls. Zones of inhibition are measured to quantify antimicrobial activity. This assay will not distinguish between microbicidal and microbiostatic actions, but is highly sensitive to peptides with one or both functions.
(§9) The following assay is designed to measure the relative antimicrobial activity of peptides by determining zones of growth inhibition.
as §1, §2, §3, §4
(§10) The synthetic peptides identified in Table 22 were assayed for antimicrobial activity against known pathogenic microorganisms. These pathogenic microorganisms included five species of bacteria (Staphylococcus aureus, Escherichia coli, Salmonella typhimurium, Pseudomonas aeruginosa and Bacillus subtilis) and one species of fungi (Candida albicans) (see Table 23). Zones of growth inhibition were measured and were grouped as complete and/or partial growth zones for the assayed microorganism. Zones were considered complete clearance when there was no visible growth (i.e. completely clear or free of growth). […]

[6] = system: Bacillus subtilis ATCC 6633; assay: as above; type: cell-based; settings: pH 5.5 versus pH 7.5
Procedure: as §8, §9, §1, §2, §3, §4, §10

[7] = system: Pseudomonas aeruginosa 01; assay: as above; type: cell-based; settings: pH 5.5 versus pH 7.5
Procedure: as §8, §9, §1, §2, §3, §4, §10

[8] = system: Salmonella typhimurium 14028; assay: as above; type: cell-based; settings: pH 5.5 versus pH 7.5
Procedure: as §8, §9, §1, §2, §3, §4, §10

Substance	antimicrobial activity [1]	pH dependence of antimicrobial activity [2]	antimicrobial activity (zone of inhibition) [3]	antimicrobial activity (zone of inhibition) [4]	effect of acidic pH on antimicrobial activity [5]	effect of acidic pH on antimicrobial activity [6]	effect of acidic pH on antimicrobial activity [7]	effect of acidic pH on antimicrobial activity [8]
N-AALYKKKIIKKLLES-C [PMP-2, C-terminal helix of the consensus molecule cPMP]	known to have antimicrobial activity	–	–	–	–	–	–	–
H2N-SIGSLIKRFAYKKAGV-CONH2 (H-SIGSLIKRFAYKKAGV-NH2) [Hol-III-4, designed from Holin protein]	–	pH dependent	significant antimicrobial activity	significant antimicrobial activity	did not appear to affect the activity	did not appear to affect the activity	did not appear to affect the activity	did not appear to affect the activity
H-ALFYFASKLYLKALYTKV-NH2 [BaxP-I-18]	–	–	–	–	did not appear to affect the activity	did not appear to affect the activity	did not appear to affect the activity	did not appear to affect the activity
H2N-IRLVSKYGKSKGIAYI-CONH2 (H-IRLVSKYGKSKGIAYI-NH2) [Ncl-VIII-6, designed from Nucleolin]	–	pH dependent	significant antimicrobial activity	significant antimicrobial activity	did not appear to affect the activity	did not appear to affect the activity	did not appear to affect the activity	did not appear to affect the activity
